Data taken from the OligoGym collection.
Oligonucleotides are written 5' to 3', each unit as a sugar letter and its base; * is a phosphorothioate linkage, no mark a phosphodiester; rarer units and linkages stand in square brackets, end groups in braces. Plain capitals give the bases only. d = 2'-deoxy (DNA); r = 2'-OH (RNA)
Further: test concentration or dose not given here.

What follows are substances tested against DENND5A (assay: reporter assay of Huesken 2005). Settings: siRNA.
Substance “sense rCrArGrGrArUrArUrGrArGrGrCrArCrArUrCrCdTdT / antisense rGrGrArUrGrUrGrCrCrUrCrArUrArUrCrCrUrGdAdA” has a normalised inhibition (eCFP-eYFP dual reporter) of 46.7%. “sense rUrUrUrGrGrGrUrUrUrGrCrCrCrUrCrArCrArUdTdT / antisense rArUrGrUrGrArGrGrGrCrArArArCrCrCrArArAdTdG” gave a normalised inhibition (eCFP-eYFP dual reporter) of 73.4%. Substance “sense rGrArCrUrGrArArGrGrArGrArArArArUrUrUrUdTdT / antisense rArArArArUrUrUrUrCrUrCrCrUrUrCrArGrUrCdGdT” has a normalised inhibition (eCFP-eYFP dual reporter) of 90.8%. In the case of “sense rUrGrArArGrGrArArUrGrCrCrGrCrArArUrArAdTdT / antisense rUrUrArUrUrGrCrGrGrCrArUrUrCrCrUrUrCrAdGdC”, the normalised inhibition (eCFP-eYFP dual reporter) is reported as 77.7%. “sense rArGrArArCrUrUrGrGrGrGrArArGrCrUrUrArCdTdT / antisense rGrUrArArGrCrUrUrCrCrCrCrArArGrUrUrCrUdGdG” gave a normalised inhibition (eCFP-eYFP dual reporter) of 88.2%. For “sense rArGrArGrGrGrArGrArArGrUrArCrArUrCrCrAdTdT / antisense rUrGrGrArUrGrUrArCrUrUrCrUrCrCrCrUrCrUdGdG”, the normalised inhibition (eCFP-eYFP dual reporter) was 80.7%. In the case of “sense rUrUrCrCrUrArCrGrArGrCrUrUrCrUrUrArArGdTdT / antisense rCrUrUrArArGrArArGrCrUrCrGrUrArGrGrArAdTdG”, the normalised inhibition (eCFP-eYFP dual reporter) is reported as 59.8%. In the case of “sense rArArUrGrGrCrArUrUrGrUrGrArArGrCrArCrUdTdT / antisense rArGrUrGrCrUrUrCrArCrArArUrGrCrCrArUrUdGdA”, the normalised inhibition (eCFP-eYFP dual reporter) is reported as 60.5%. “sense rGrGrCrUrArArCrCrUrCrUrGrCrUrUrUrGrUrGdTdT / antisense rCrArCrArArArGrCrArGrArGrGrUrUrArGrCrCdTdC” gave a normalised inhibition (eCFP-eYFP dual reporter) of 70.2%. With “sense rUrGrCrCrCrGrGrCrUrGrCrArArGrCrCrUrUrGdTdT / antisense rCrArArGrGrCrUrUrGrCrArGrCrCrGrGrGrCrAdAdT” the normalised inhibition (eCFP-eYFP dual reporter) was 56.4%. Substance “sense rArGrGrCrUrGrArUrCrCrCrArGrGrGrArGrCrCdTdT / antisense rGrGrCrUrCrCrCrUrGrGrGrArUrCrArGrCrCrUdGdG” has a normalised inhibition (eCFP-eYFP dual reporter) of 57.4%. “sense rCrUrGrUrCrUrUrUrCrArArUrGrCrCrGrUrCrGdTdT / antisense rCrGrArCrGrGrCrArUrUrGrArArArGrArCrArGdGdA” showed a normalised inhibition (eCFP-eYFP dual reporter) of 47.4%. With “sense rArCrGrArGrCrUrGrUrCrGrGrCrArUrUrArUrGdTdT / antisense rCrArUrArArUrGrCrCrGrArCrArGrCrUrCrGrUdCdC” the normalised inhibition (eCFP-eYFP dual reporter) was 54.1%. With “sense rArCrArUrCrCrArGrArArCrArUrCrGrGrGrGrAdTdT / antisense rUrCrCrCrCrGrArUrGrUrUrCrUrGrGrArUrGrUdGdC” the normalised inhibition (eCFP-eYFP dual reporter) was 44.4%. With “sense rUrUrCrArUrUrGrArCrArArCrArArArArUrArAdTdT / antisense rUrUrArUrUrUrUrGrUrUrGrUrCrArArUrGrArAdAdG” the normalised inhibition (eCFP-eYFP dual reporter) was 97.8%. “sense rArGrGrArCrArArCrCrGrGrCrArGrArGrArArAdTdT / antisense rUrUrUrCrUrCrUrGrCrCrGrGrUrUrGrUrCrCrUdGdA” was tested, and the normalised inhibition (eCFP-eYFP dual reporter) was 67%. For “sense rCrCrUrUrArUrGrGrUrCrCrCrArCrCrUrGrUrUdTdT / antisense rArArCrArGrGrUrGrGrGrArCrCrArUrArArGrGdCdT”, the normalised inhibition (eCFP-eYFP dual reporter) was 62.5%. Substance “sense rCrArUrGrUrCrGrGrArGrCrGrUrGrCrUrGrGrAdTdT / antisense rUrCrCrArGrCrArCrGrCrUrCrCrGrArCrArUrGdCdC” has a normalised inhibition (eCFP-eYFP dual reporter) of 60.8%. For “sense rGrGrGrArArArUrCrArGrCrCrUrUrArUrGrGrUdTdT / antisense rArCrCrArUrArArGrGrCrUrGrArUrUrUrCrCrCdCdT”, the normalised inhibition (eCFP-eYFP dual reporter) was 61.1%. “sense rUrUrGrArGrArArGrArArCrArUrUrCrArArArUdTdT / antisense rArUrUrUrGrArArUrGrUrUrCrUrUrCrUrCrArAdTdG” was tested, and the normalised inhibition (eCFP-eYFP dual reporter) was 54.7%. Work on “sense rCrUrUrUrGrUrGrArUrCrUrCrCrUrGrGrArArAdTdT / antisense rUrUrUrCrCrArGrGrArGrArUrCrArCrArArArGdGdC” yielded a normalised inhibition (eCFP-eYFP dual reporter) of 65.8%. Substance “sense rGrGrArArArArGrUrUrGrGrArArGrUrGrCrGrUdTdT / antisense rArCrGrCrArCrUrUrCrCrArArCrUrUrUrUrCrCdAdG” has a normalised inhibition (eCFP-eYFP dual reporter) of 60.8%. “sense rUrCrArGrUrGrUrGrArUrGrArArGrArArGrArAdTdT / antisense rUrUrCrUrUrCrUrUrCrArUrCrArCrArCrUrGrAdAdC” was tested, and the normalised inhibition (eCFP-eYFP dual reporter) was 75.2%. In the case of “sense rGrArArUrGrGrGrArArCrArUrUrGrCrUrGrGrCdTdT / antisense rGrCrCrArGrCrArArUrGrUrUrCrCrCrArUrUrCdCdT”, the normalised inhibition (eCFP-eYFP dual reporter) is reported as 45.3%. In the case of “sense rGrCrUrGrArArGrArGrGrCrUrGrCrGrGrGrCrCdTdT / antisense rGrGrCrCrCrGrCrArGrCrCrUrCrUrUrCrArGrCdTdT”, the normalised inhibition (eCFP-eYFP dual reporter) is reported as 37.4%. In the case of “sense rArArCrCrUrArUrUrArUrGrArGrArCrArUrUrAdTdT / antisense rUrArArUrGrUrCrUrCrArUrArArUrArGrGrUrUdTdG”, the normalised inhibition (eCFP-eYFP dual reporter) is reported as 66.3%. Substance “sense rGrGrGrArGrCrCrArGrArGrArUrCrArCrCrUrCdTdT / antisense rGrArGrGrUrGrArUrCrUrCrUrGrGrCrUrCrCrCdAdA” has a normalised inhibition (eCFP-eYFP dual reporter) of 49.7%. “sense rArArCrArGrGrGrArGrCrArArArUrGrCrArArAdTdT / antisense rUrUrUrGrCrArUrUrUrGrCrUrCrCrCrUrGrUrUdGdG” showed a normalised inhibition (eCFP-eYFP dual reporter) of 49.2%. With “sense rCrCrCrCrGrCrCrGrCrUrGrCrArGrCrArGrUrCdTdT / antisense rGrArCrUrGrCrUrGrCrArGrCrGrGrCrGrGrGrGdTdC” the normalised inhibition (eCFP-eYFP dual reporter) was 61.8%. Work on “sense rCrArCrArUrGrCrArCrArArUrGrCrUrGrArGrUdTdT / antisense rArCrUrCrArGrCrArUrUrGrUrGrCrArUrGrUrGdGdT” yielded a normalised inhibition (eCFP-eYFP dual reporter) of 69.6%. “sense rGrGrCrCrArGrCrCrArGrCrArArCrArArGrUrGdTdT / antisense rCrArCrUrUrGrUrUrGrCrUrGrGrCrUrGrGrCrCdCdA” showed a normalised inhibition (eCFP-eYFP dual reporter) of 73.7%. “sense rArUrUrCrCrUrArCrGrArGrCrUrUrCrUrUrArAdTdT / antisense rUrUrArArGrArArGrCrUrCrGrUrArGrGrArArUdGdC” was tested, and the normalised inhibition (eCFP-eYFP dual reporter) was 65.4%. “sense rUrUrUrCrArCrUrCrArGrArUrGrUrUrUrGrCrAdTdT / antisense rUrGrCrArArArCrArUrCrUrGrArGrUrGrArArAdCdG” gave a normalised inhibition (eCFP-eYFP dual reporter) of 42.4%. “sense rArArUrGrGrGrArArCrArUrUrGrCrUrGrGrCrUdTdT / antisense rArGrCrCrArGrCrArArUrGrUrUrCrCrCrArUrUdCdC” was tested, and the normalised inhibition (eCFP-eYFP dual reporter) was 43.6%. “sense rUrCrUrUrGrArUrUrCrArGrArArCrGrUrArGrGdTdT / antisense rCrCrUrArCrGrUrUrCrUrGrArArUrCrArArGrAdAdG” was tested, and the normalised inhibition (eCFP-eYFP dual reporter) was 29.1%. For “sense rArCrGrCrUrGrUrUrGrCrUrCrUrGrUrGrGrArGdTdT / antisense rCrUrCrCrArCrArGrArGrCrArArCrArGrCrGrUdCdA”, the normalised inhibition (eCFP-eYFP dual reporter) was 60.7%. In the case of “sense rGrArUrGrArGrArGrGrCrCrArUrGrCrCrGrGrAdTdT / antisense rUrCrCrGrGrCrArUrGrGrCrCrUrCrUrCrArUrCdCdA”, the normalised inhibition (eCFP-eYFP dual reporter) is reported as 63%. With “sense rCrArGrArUrGrUrUrUrGrCrArUrCrUrUrUrCrAdTdT / antisense rUrGrArArArGrArUrGrCrArArArCrArUrCrUrGdGdG” the normalised inhibition (eCFP-eYFP dual reporter) was 75.3%. For “sense rCrCrArUrGrCrCrUrUrUrArUrUrArUrCrArCrAdTdT / antisense rUrGrUrGrArUrArArUrArArArGrGrCrArUrGrGdAdA”, the normalised inhibition (eCFP-eYFP dual reporter) was 72.5%. In the case of “sense rCrUrArUrCrArCrCrUrCrCrUrGrUrCrUrUrUrCdTdT / antisense rGrArArArGrArCrArGrGrArGrGrUrGrArUrArGdAdG”, the normalised inhibition (eCFP-eYFP dual reporter) is reported as 63.1%. Work on “sense rCrUrCrCrUrGrUrGrArCrCrArArArCrUrGrCrAdTdT / antisense rUrGrCrArGrUrUrUrGrGrUrCrArCrArGrGrArGdTdG” yielded a normalised inhibition (eCFP-eYFP dual reporter) of 80.5%. “sense rCrArGrGrGrArGrCrArArArUrGrCrArArArArCdTdT / antisense rGrUrUrUrUrGrCrArUrUrUrGrCrUrCrCrCrUrGdTdT” showed a normalised inhibition (eCFP-eYFP dual reporter) of 67.9%. “sense rCrArGrCrGrCrUrUrCrArArCrUrCrCrUrArUrGdTdT / antisense rCrArUrArGrGrArGrUrUrGrArArGrCrGrCrUrGdCdA” was tested, and the normalised inhibition (eCFP-eYFP dual reporter) was 49.9%. “sense rCrUrUrUrCrArArUrGrCrCrGrUrCrGrArUrUrAdTdT / antisense rUrArArUrCrGrArCrGrGrCrArUrUrGrArArArGdAdC” was tested, and the normalised inhibition (eCFP-eYFP dual reporter) was 76.8%. “sense rArGrArArGrArArCrUrCrArGrGrArUrUrUrArCdTdT / antisense rGrUrArArArUrCrCrUrGrArGrUrUrCrUrUrCrUdTdC” was tested, and the normalised inhibition (eCFP-eYFP dual reporter) was 44.7%. “sense rGrUrUrUrArGrArUrArArUrGrArCrCrArGrArGdTdT / antisense rCrUrCrUrGrGrUrCrArUrUrArUrCrUrArArArCdGdC” was tested, and the normalised inhibition (eCFP-eYFP dual reporter) was 51.4%. “sense rGrUrGrCrCrArGrArArCrUrUrGrGrGrGrArArGdTdT / antisense rCrUrUrCrCrCrCrArArGrUrUrCrUrGrGrCrArCdTdC” showed a normalised inhibition (eCFP-eYFP dual reporter) of 41.9%. “sense rUrUrArCrCrArGrArGrArCrUrGrArUrGrArCrUdTdT / antisense rArGrUrCrArUrCrArGrUrCrUrCrUrGrGrUrArAdTdG” gave a normalised inhibition (eCFP-eYFP dual reporter) of 28.8%. In the case of “sense rCrUrGrUrCrGrGrCrArUrUrArUrGrCrCrArGrUdTdT / antisense rArCrUrGrGrCrArUrArArUrGrCrCrGrArCrArGdCdT”, the normalised inhibition (eCFP-eYFP dual reporter) is reported as 73%. “sense rGrArUrCrCrUrArGrUrUrGrGrGrGrArGrCrUrGdTdT / antisense rCrArGrCrUrCrCrCrCrArArCrUrArGrGrArUrCdCdG” was tested, and the normalised inhibition (eCFP-eYFP dual reporter) was 66.6%. For “sense rGrArCrCrCrArGrArUrGrUrUrUrGrCrArUrCrUdTdT / antisense rArGrArUrGrCrArArArCrArUrCrUrGrGrGrUrCdTdC”, the normalised inhibition (eCFP-eYFP dual reporter) was 71.9%. For “sense rCrCrArGrArGrGrGrArGrArArGrUrArCrArUrCdTdT / antisense rGrArUrGrUrArCrUrUrCrUrCrCrCrUrCrUrGrGdTdC”, the normalised inhibition (eCFP-eYFP dual reporter) was 34.5%.
